What was measured:
[1] = target: Vascular endothelial growth factor receptor 3 (Homo sapiens) (UniProt P35916); experiment: Inhibition of FLT4 (unknown origin) at 500 nM
[2] = target: Mitogen-activated protein kinase 1 (Homo sapiens) (UniProt P28482); experiment: Inhibition of MAPK1 (unknown origin) at 500 nM
[3] = target: Tyrosine-protein kinase Yes (Homo sapiens) (UniProt P07947); experiment: Inhibition of YES1 (unknown origin) at 500 nM
[4] = target: Serine/threonine-protein kinase PLK1 (Homo sapiens) (UniProt P53350); experiment: Inhibition of PLK1 (unknown origin) at 500 nM
[5] = target: Tyrosine-protein kinase Fer (Homo sapiens) (UniProt P16591); experiment: Inhibition of FER (unknown origin) at 500 nM
[6] = target: Tyrosine-protein kinase JAK2 (Homo sapiens) (UniProt O60674); experiment: Inhibition of JAK2 (unknown origin) at 500 nM
[7] = target: Tyrosine-protein kinase Lyn (Homo sapiens) (UniProt P07948); experiment: Inhibition of LYN A (unknown origin) at 500 nM
[8] = target: Protein kinase C beta type (Homo sapiens) (UniProt P05771); experiment: Inhibition of PRKCB1 (unknown origin) at 500 nM
[9] = target: Platelet-derived growth factor receptor beta (Homo sapiens) (UniProt P09619); experiment: Inhibition of PDGFRB (unknown origin) at 500 nM
[10] = target: Mitogen-activated protein kinase 8 (Homo sapiens) (UniProt P45983); experiment: Inhibition of MAPK8 (unknown origin) at 500 nM
[11] = target: Tyrosine-protein kinase Fgr (Homo sapiens) (UniProt P09769); experiment: Inhibition of FGR (unknown origin) at 500 nM
[12] = target: Vascular endothelial growth factor receptor 1 (Homo sapiens) (UniProt P17948); experiment: Inhibition of FLT1 (unknown origin) at 500 nM
[13] = target: Protein kinase C alpha type (Homo sapiens) (UniProt P17252); experiment: Inhibition of PRKCA (unknown origin) at 500 nM
[14] = target: Receptor tyrosine-protein kinase erbB-2 (Homo sapiens) (UniProt P04626); experiment: Inhibition of ERBB2 (unknown origin) at 500 nM
[15] = target: Dual specificity mitogen-activated protein kinase kinase 1 (Homo sapiens) (UniProt Q02750); experiment: Inhibition of MAP2K1 (unknown origin) at 500 nM
[16] = target: Serine/threonine-protein kinase B-raf (Homo sapiens) (UniProt P15056); experiment: Inhibition of BRAF (unknown origin) at 500 nM
[17] = target: Macrophage colony-stimulating factor 1 receptor (Homo sapiens) (UniProt P07333); experiment: Inhibition of CSF1R (unknown origin) at 500 nM
[18] = target: Focal adhesion kinase 1 (Homo sapiens) (UniProt Q05397); experiment: Inhibition of PTK2 (unknown origin) at 500 nM
[19] = target: Receptor tyrosine-protein kinase erbB-4 (Homo sapiens) (UniProt Q15303); experiment: Inhibition of ERBB4 (unknown origin) at 500 nM
[20] = target: T1, Aurora kinase A (Homo sapiens) (UniProt O14965); experiment: Inhibition of AURKA (unknown origin) at 500 nM
T1 sequence (whole entry): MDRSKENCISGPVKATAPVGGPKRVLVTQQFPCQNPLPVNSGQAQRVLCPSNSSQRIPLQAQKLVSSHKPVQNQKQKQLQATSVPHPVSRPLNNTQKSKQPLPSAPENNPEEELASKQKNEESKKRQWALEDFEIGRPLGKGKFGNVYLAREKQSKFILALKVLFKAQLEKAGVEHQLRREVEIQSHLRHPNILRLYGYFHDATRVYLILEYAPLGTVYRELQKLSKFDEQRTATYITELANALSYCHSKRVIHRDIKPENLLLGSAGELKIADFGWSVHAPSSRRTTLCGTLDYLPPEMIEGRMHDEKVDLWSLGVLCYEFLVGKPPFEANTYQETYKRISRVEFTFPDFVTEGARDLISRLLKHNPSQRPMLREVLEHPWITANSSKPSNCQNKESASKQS

[21] = target: Vascular endothelial growth factor receptor 2 (Homo sapiens) (UniProt P35968); experiment: Inhibition of KDR (unknown origin) at 500 nM
[22] = target: Tyrosine-protein kinase HCK (Homo sapiens) (UniProt P08631); experiment: Inhibition of HCK (unknown origin) at 500 nM
[23] = target: Epidermal growth factor receptor (Homo sapiens, UniProt P00533); experiment: Inhibition of EGFR (unknown origin) by Z -LYTE assay
[24] = target: T2, Serine/threonine-protein kinase Chk1 (Homo sapiens) (UniProt O14757); experiment: Inhibition of CHEK1 (unknown origin) at 500 nM
T2 sequence (whole entry): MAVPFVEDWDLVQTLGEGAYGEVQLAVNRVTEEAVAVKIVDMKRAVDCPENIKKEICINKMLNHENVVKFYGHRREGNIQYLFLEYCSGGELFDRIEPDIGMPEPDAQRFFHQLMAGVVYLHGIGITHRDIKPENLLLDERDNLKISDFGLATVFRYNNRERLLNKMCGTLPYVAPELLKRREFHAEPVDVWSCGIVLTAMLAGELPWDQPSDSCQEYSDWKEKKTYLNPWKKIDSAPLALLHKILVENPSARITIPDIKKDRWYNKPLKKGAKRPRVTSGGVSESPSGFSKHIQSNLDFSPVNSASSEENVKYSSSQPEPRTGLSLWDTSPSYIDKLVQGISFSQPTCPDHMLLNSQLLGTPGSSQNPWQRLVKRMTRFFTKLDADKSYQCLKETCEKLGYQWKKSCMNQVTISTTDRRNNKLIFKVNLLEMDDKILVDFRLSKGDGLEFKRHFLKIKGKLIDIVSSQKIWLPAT

[25] = target: Fibroblast growth factor receptor 1 (Homo sapiens) (UniProt P11362); experiment: Inhibition of FGFR1 (unknown origin) at 500 nM
[26] = target: Proto-oncogene tyrosine-protein kinase receptor Ret (Homo sapiens) (UniProt P07949); experiment: Inhibition of RET (unknown origin) at 500 nM
[27] = target: Insulin-like growth factor 1 receptor (Homo sapiens) (UniProt P08069); experiment: Inhibition of IGF1R (unknown origin) at 500 nM
[28] = target: Aurora kinase B (Homo sapiens) (UniProt Q96GD4); experiment: Inhibition of AURKB (unknown origin) at 500 nM
[29] = target: Tyrosine-protein kinase CSK (Homo sapiens) (UniProt P41240); experiment: Inhibition of CSK (unknown origin) at 500 nM
Sequence of Tyrosine-protein kinase CSK (Homo sapiens) (P41240 2-450 limits assumed): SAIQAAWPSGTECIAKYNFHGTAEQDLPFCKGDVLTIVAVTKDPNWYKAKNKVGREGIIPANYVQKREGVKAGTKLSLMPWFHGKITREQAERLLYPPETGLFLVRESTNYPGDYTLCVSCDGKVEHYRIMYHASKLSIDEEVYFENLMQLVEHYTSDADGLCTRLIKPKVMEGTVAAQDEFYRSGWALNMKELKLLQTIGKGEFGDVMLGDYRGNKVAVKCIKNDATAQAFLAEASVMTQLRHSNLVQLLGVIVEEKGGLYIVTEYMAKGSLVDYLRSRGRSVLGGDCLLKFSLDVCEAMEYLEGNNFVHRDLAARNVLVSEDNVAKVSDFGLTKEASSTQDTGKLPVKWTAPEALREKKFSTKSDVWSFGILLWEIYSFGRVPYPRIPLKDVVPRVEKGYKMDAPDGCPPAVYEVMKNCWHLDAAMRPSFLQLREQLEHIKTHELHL

Sequence of Fibroblast growth factor receptor 1 (Homo sapiens) (P11362 22-822 limits assumed): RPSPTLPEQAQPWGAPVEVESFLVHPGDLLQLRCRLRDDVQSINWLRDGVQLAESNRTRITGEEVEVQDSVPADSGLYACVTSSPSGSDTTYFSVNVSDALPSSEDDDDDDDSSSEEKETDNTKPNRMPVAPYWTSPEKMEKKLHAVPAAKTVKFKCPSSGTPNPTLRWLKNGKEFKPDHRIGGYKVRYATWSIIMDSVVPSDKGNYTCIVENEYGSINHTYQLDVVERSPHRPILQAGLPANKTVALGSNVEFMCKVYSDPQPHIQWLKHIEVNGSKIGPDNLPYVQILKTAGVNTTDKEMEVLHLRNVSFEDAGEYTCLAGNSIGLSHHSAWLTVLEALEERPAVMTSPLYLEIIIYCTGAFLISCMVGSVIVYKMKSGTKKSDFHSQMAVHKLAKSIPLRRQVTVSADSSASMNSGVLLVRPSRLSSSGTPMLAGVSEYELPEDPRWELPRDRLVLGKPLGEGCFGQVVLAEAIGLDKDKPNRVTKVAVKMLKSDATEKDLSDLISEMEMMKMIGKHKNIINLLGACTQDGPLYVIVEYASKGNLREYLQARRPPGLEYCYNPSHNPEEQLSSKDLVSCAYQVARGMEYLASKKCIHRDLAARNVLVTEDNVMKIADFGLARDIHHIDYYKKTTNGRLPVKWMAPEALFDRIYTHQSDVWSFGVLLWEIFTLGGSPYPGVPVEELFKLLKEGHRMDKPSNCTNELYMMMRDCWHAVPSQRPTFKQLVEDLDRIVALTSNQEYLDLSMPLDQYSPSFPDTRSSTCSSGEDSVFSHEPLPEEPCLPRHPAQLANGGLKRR
Sequence of Dual specificity mitogen-activated protein kinase kinase 1 (Homo sapiens) (Q02750 whole entry): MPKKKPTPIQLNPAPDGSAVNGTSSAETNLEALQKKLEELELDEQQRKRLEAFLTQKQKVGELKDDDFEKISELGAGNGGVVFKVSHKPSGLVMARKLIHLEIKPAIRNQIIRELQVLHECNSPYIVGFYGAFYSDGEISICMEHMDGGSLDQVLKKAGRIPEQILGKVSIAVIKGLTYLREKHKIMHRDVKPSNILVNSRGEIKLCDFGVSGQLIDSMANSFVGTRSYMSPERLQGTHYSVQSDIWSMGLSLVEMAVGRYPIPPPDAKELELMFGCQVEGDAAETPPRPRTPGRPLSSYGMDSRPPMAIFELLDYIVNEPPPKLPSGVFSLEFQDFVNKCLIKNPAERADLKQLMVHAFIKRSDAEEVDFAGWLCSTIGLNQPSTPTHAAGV
Sequence of Tyrosine-protein kinase Fer (Homo sapiens) (P16591 whole entry, looked up): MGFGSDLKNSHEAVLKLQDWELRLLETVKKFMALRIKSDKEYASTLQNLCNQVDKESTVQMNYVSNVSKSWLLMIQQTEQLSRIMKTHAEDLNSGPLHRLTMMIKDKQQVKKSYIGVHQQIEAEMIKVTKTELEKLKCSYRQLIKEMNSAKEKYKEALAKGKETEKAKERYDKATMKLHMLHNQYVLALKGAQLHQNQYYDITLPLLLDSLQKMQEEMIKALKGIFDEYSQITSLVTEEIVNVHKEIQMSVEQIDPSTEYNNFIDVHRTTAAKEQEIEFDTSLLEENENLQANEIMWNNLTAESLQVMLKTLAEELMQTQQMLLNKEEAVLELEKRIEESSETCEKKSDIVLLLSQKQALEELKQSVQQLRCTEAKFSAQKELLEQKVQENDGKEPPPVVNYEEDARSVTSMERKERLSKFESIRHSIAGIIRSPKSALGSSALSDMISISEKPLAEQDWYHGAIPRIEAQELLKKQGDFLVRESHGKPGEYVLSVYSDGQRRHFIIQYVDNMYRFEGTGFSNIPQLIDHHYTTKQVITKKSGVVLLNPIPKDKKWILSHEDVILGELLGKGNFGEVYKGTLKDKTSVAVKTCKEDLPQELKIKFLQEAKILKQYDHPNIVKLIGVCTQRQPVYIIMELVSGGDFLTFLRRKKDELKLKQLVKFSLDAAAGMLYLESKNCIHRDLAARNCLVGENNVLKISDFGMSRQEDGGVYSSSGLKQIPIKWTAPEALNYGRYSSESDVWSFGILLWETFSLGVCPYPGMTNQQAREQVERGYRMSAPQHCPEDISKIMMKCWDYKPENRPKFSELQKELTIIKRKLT
Sequence of Epidermal growth factor receptor (P00533 whole entry): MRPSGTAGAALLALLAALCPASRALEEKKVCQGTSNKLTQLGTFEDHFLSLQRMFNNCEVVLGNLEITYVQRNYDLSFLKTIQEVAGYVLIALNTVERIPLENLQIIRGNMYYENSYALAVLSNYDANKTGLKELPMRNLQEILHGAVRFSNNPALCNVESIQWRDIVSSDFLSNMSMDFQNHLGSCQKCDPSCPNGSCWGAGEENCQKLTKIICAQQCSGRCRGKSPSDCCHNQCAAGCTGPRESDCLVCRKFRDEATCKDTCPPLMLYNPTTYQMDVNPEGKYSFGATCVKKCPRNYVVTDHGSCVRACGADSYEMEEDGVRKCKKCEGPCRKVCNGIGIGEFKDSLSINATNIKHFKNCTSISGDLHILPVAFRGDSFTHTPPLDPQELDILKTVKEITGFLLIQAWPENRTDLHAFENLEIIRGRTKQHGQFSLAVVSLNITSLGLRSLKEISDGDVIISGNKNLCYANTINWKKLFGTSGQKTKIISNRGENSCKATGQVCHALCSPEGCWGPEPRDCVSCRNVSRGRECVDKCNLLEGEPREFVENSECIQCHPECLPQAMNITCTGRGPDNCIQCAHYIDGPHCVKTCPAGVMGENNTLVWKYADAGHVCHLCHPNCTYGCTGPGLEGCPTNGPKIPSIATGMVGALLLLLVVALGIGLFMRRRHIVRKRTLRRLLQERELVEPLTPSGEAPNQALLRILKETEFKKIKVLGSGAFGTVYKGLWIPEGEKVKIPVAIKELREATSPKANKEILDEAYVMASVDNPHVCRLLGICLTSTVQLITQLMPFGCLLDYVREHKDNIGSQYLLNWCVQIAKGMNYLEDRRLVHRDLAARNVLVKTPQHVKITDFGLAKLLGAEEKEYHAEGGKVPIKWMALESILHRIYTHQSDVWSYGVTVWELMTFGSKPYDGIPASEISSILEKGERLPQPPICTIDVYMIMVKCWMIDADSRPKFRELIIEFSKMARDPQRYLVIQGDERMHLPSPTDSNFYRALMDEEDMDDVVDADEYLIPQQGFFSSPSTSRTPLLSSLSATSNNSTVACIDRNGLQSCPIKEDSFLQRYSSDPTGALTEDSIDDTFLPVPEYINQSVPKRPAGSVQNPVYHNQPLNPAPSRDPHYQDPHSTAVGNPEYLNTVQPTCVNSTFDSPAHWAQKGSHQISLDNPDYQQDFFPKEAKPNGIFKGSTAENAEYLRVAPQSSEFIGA
Sequence of Mitogen-activated protein kinase 1 (Homo sapiens) (P28482 whole entry): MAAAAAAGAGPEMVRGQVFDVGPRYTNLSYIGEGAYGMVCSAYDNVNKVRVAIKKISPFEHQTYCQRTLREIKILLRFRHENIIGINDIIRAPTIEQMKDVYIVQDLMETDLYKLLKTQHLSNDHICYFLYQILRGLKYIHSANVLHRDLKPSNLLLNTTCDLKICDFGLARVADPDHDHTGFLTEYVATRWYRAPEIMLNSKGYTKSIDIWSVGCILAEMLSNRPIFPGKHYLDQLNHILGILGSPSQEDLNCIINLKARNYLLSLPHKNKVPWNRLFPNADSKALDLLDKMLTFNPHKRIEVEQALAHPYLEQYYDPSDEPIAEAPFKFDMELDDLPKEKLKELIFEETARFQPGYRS
Sequence of Tyrosine-protein kinase Yes (Homo sapiens) (P07947 2-543 limits assumed): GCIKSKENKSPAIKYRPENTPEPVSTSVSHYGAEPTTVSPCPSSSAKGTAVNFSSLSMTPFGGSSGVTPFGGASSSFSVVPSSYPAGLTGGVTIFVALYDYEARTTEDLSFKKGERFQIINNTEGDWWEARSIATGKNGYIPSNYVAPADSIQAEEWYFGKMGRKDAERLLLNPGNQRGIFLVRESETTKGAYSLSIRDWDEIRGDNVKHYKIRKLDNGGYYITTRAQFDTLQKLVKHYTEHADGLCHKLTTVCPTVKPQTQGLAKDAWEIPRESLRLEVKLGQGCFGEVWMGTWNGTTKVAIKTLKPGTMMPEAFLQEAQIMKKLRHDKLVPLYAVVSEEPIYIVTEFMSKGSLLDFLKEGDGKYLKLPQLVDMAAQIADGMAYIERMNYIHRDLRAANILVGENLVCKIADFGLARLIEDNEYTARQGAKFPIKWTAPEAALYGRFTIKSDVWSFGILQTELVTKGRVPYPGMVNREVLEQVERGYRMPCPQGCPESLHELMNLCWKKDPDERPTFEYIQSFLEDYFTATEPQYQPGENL
Sequence of Mitogen-activated protein kinase 8 (Homo sapiens) (P45983 whole entry): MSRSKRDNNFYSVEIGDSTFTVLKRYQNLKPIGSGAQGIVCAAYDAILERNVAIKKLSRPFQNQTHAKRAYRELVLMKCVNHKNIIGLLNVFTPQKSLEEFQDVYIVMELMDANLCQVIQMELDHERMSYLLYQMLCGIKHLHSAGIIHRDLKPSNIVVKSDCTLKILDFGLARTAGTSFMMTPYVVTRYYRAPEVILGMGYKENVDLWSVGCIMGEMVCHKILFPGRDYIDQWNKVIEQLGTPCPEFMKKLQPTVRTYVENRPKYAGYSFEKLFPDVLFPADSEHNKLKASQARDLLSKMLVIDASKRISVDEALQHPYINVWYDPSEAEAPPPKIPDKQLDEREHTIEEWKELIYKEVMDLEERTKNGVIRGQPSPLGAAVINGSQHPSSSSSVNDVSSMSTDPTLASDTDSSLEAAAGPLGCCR

| SMILES | inhibition [1] [%] | inhibition [2] [%] | inhibition [3] [%] | inhibition [4] [%] | inhibition [5] [%] | inhibition [6] [%] | inhibition [7] [%] | inhibition [8] [%] | inhibition [9] [%] | inhibition [10] [%] | inhibition [11] [%] | inhibition [12] [%] | inhibition [13] [%] | inhibition [14] [%] | inhibition [15] [%] | inhibition [16] [%] | inhibition [17] [%] | inhibition [18] [%] | inhibition [19] [%] | inhibition [20] [%] | also measured |
| --- | --- | --- | --- | --- | --- | --- | --- | --- | --- | --- | --- | --- | --- | --- | --- | --- | --- | --- | --- | --- | --- |
| C#Cc1cccc(Nc2ncnc3sc(-c4ccc(CO)cc4OC)cc23)c1 | 7 | 1 | 8 | -8 | -2 | 6 | 13 | -2 | 13 | 3 | 11 | -7 | -7 | 19 | 3 | 16 | -1 | 0 | 12 | 14 | inhibition [21]: 8%; inhibition [22]: -4%; IC50 [23]: 5 nM; inhibition [24]: -3%; inhibition [25]: -6%; inhibition [26]: 0%; inhibition [27]: -8%; inhibition [28]: 21%; inhibition [29]: 8% |
| C[C@@H](Nc1ncnc2sc(-c3ccc(C(=O)NCCN(C)C)cc3)cc12)c1ccccc1 | 13 | 9 | 23 | 1 | -4 | -10 | 38 | 2 | 6 | 38 | 18 | 1 | 0 | 40 | 6 | 23 | 8 | 7 | 14 | 3 | inhibition [21]: 6%; inhibition [22]: 3%; IC50 [23]: 2 nM; inhibition [24]: -6%; inhibition [25]: -7%; inhibition [26]: -2%; inhibition [27]: -6%; inhibition [28]: 17%; inhibition [29]: 10% |
| C[C@@H](Nc1ncnc2sc(-c3ccccc3C(N)=O)cc12)c1ccccc1 | 2 | 9 | 10 | -3 | -4 | -8 | 16 | 3 | 6 | 26 | 2 | 4 | 8 | -3 | 3 | 21 | 3 | 5 | 10 | 6 | inhibition [21]: -4%; inhibition [22]: 2%; IC50 [23]: 276 nM; inhibition [24]: -4%; inhibition [25]: -6%; inhibition [26]: -5%; inhibition [27]: -6%; inhibition [28]: 2%; inhibition [29]: 12% |

— ChEMBL document CHEMBL3758163, “Extended structure-activity study of thienopyrimidine-based EGFR inhibitors with evaluation of drug-like properties” (Eur J Med Chem, 2016)
